From US20040086498A9, “Cancer therapy” (priority 1999, published 2004)

Legend:
EL-4 tumours = assay: Treatment of large established EL-4 tumours with CAM gene transfer, DMXAA/FAA or timed combination; assay type: in vivo, C57BL/6 mice; conditions: large EL-4 tumours 0.6-0.8 cm; systemic (i.p.) optimal dose monotherapy; over a period of 3 weeks
Experimental: Female C57BL/6 mice, 6-9 weeks old, were obtained from the Animal Resource Unit, School of Medicine and Health Science, University of Auckland, Auckland. The EL-4 thymic lymphoma and mouse Lewis lung carcinoma cells (LLC) (H-2b) were purchased from the American Type Culture Collection (Rockville, Md). These cell lines were cultured in vitro at 37° C. in DMEM medium (Gibco BRL), supplemented with 10% foetal calf serum, 50 U/ml penicillin/streptomycin, 2 mM L-glutamine, 1 mM pyruvate.
Experimental Tumour Model.
Administration FAA and DMXAA Analogues. FAA was gifted from the Department of Health & Human Services, Drug Synthesis & Chemistry laboratory, National Cancer Institute, Bethesda, USA. The sodium salt of DMXAA was synthesized in the Auckland Cancer Society Research Centre, School of Medicine and Health Science, University of Auckland. Solutions of FAA and DMXAA in 5% (w/v) sodium bicarbonate and water, respectively, were prepared fresh for each experiment and protected from light. FAA and DMXAA were injected i.p. at 300 mg/Kg and 25 mg/Kg of body weight in a volume of 0.01 ml/g body weight, respectively.
Gene Transfer of B7.1. […]

EL-4 target cells = assay: Measurement of anti-tumour CTL activity of splenocytes from treated mice; assay type: cell-based; conditions: 21 days following gene transfer; combinations versus B7.1 monotherapy
Experimental: Measurement of the Generation of Anti-Tumour CTL. Splenocytes were harvested 21, and 42 days following initial gene transfer, and 22 days following a parental tumour challenge. They were incubated at 37° C. with EL-4 target cells in graded E:T ratios in 96-well round-bottom plates. After a 4-hour incubation, 50 μl of supernatant was collected, and lysis was measured using the Cyto Tox 96 Assay Kit (Promega, Madison, Wis., USA). Background controls for non-specific target and effector cell lysis were included. After background subtraction, percentage of cell lysis was calculated using the formula: 100×(experimental-spontaneous effector-target spontaneous target/maximum target-spontaneous target).

established EL-4 tumours = assay: Adoptive transfer of anti-tumour splenocytes from treated mice; assay type: in vivo; conditions: 2×10^8 splenocytes from treated mice; recipients with EL-4 tumours up to 0.8 cm
Experimental: Adoptive Transfer of Anti-Tumour CTL. Adoptive transfer of anti-tumour splenocytes was as described previously (Kanwar et al, 1999). Briefly, splenocytes obtained from mice 21 days following therapy were resuspended in Hank's balanced salt solution containing 1% FCS, and stimulated with 5 μg/ml PHA and 100 U/ml recombinant mouse IL-2 for 4 to 5 days. Animals bearing tumours 0.6 cm in diameter received both intratumoral and i.p. injections of 2×10^8 cultured splenocytes.

EL-4 tumour sections = assay: In situ detection of apoptotic and necrotic cells (TUNEL / propidium iodide); assay type: in vivo, mice; conditions: tumour sections 7, 14, 21 days after treatment; TUNEL and PI
Experimental: In Situ Detection of Apoptotic Cells. Tumours were excised and immediately frozen in dry ice, stored at −70° C., and serial sections of 6 μm thickness prepared. TUNEL staining was performed using an In Situ apoptosis detection kit from Boehringer Mannheim, Germany. Briefly, frozen sections were fixed with paraformaldehyde solution (4% in PBS, pH 7.4), and permeabilized with a solution containing 0.1% Triton X-100 and 0.1% sodium citrate. After washing they were incubated with 20 μl TUNEL reagent for 60 min at 37° C., and examined by fluorescence microscopy. Some slides were counterstained with propidium iodide (PI; Sigma, Calif., USA) to distinguish necrotic cells from those undergoing apoptosis. Adjacent sections were counterstained with haematoxylin and eosin and mounted. The total number of apoptotic or necrotic cells were counted. The apototic index (AI) or necrotic index (NI) was calculated as follows: AI or NI=number of apoptotic or necrotic cells×100/total number of nucleated cells.

heat shock protein 70 = assay: Immunohistology of hsp70 expression in tumours; assay type: in vivo, mice; conditions: 7 days following administration
Experimental: Immunohistology. Tumours were excised on the seventh day following administration of therapeutic agents and controls, immediately frozen in dry ice, stored at −70° C. in isopentane, and sections of 10 μm thickness prepared. Sections were mounted on poly L-lysine-coated slides, and endogenous peroxidases blocked by incubating slides for 30 min in 0.3% H2O2 in methanol. Sections were stained with mouse anti-Hsp70 mAb (SPA-810 antibody; StressGen Biotechnologies Corp., Victoria, Canada) using a mouse-on-mouse immunodetection ABC Elite peroxidase kit (Vector Laboratories, Burlingame, Calif., USA). They were developed with SIGMA FAST DAB (3,3′-diaminobenzidine tetrahydrochloride) with metal enhancer CoCl2 tablets, and counterstained with haematoxylin and eosin. As a control, the primary antibody was substituted with rat IgG (Sigma, USA).

| Molecule | tumour diameter to which tumours shrank (EL-4 tumours) | anti-tumour CTL activity of splenocytes (EL-4 target cells) | anti-tumour effect of adoptively transferred splenocytes (established EL-4 tumours) | apoptotic versus necrotic tumour cells (EL-4 tumour sections) | hsp70 expression in tumours (heat shock protein 70) |
| --- | --- | --- | --- | --- | --- |
| Cc1ccc2c(=O)c3cccc(CC(=O)O)c3oc2c1C [DMXAA, 5,6-dimethylxanthenone-4-acetic acid] | 0.1-0.2 cm | very poor effectors | no detectable anti-tumour activity | predominance of necrotic cells | consistently found upregulated on tumour cells either surrounding or within the vicinity of blood vessels |
| flavone acetic acid [FAA] | 0.2-0.4 cm | very poor effectors | – | – | – |
